Laboratory results: US8796268B2, “Heteroaryls and uses thereof” (Millennium Pharmaceuticals, Inc., priority 2010, dated 2014)
One block for each compound: values may come before it.

Key:
Human PI3K alpha = target: T1, Human PI3K alpha (Homo sapiens, UniProt P42336); test: Human PI3K alpha enzyme assay (HTRF); assay type: biochemical; settings: read-out: PI3Kalpha IC50
T1 construct: His (N); host or cells: SF9 insect cells (baculovirus)
From the text: (§1) The catalytic subunits of PI3Ks are cloned into either pDEST8(p110 alpha) or pDEST10(p110beta, p110delta, and p110gamma) as N-terminal His tagged fusion proteins using the Gateway system (Invitrogen, catalog#11804-010 for pDEST8 and 11806-015 for pDEST10). The sequences are verified before recombinant protein expression using the Baculovirus Expression System with Gateway® Technology. The accession numbers for the subunits are as follows: • p110 alpha (GB:U79143) • p110beta (GB: S67334) • p110delta (GB: U86453) • p110gamma (GB: X83368) • The regulatory subunits of PI3Ks are cloned into pDEST8 as un-tagged protein using the Gateway system (Catalog#11804-010). The sequences are verified before recombinant protein expression using the Baculovirus Expression System with Gateway® Technology. The accession numbers for the subunits are as following: • p85 alpha (GB: BC030815) • p101(GB: AB028925) • VPS34 (accession number GB:BC033004) is cloned into pDEST20—Thombin as N-terminal GST tagged fusion proteins using the Gateway system (Invitrogen, catalog#11804-013). The sequences are verified before recombinant protein expression using the Baculovirus Expression System with Gateway® Technology.
(§2) For expression of the p110 complexes, the p85 (MOI of 4) is co-infected with p110 alpha, beta, and delta respectively (1MOI) in SF9 cells and harvested at 60 hours post co-infection. P110 gamma was infected at 1 MOI and harvested at 60 hours post infection.
(§3) For purification, PI3Ks are purified by Ni-NTA Agarose (Qiagen #30250) followed by Mono Q 10/100 GL (Ge Healthcare #17-5167-01). VPS34 is purified by Glutathione Sepharose 4 Fast Flow (GE Healthcare #17-5132-03) followed by HiTrap Q (GE Healthcare #17-1153-01).
1) Human PI3K alpha enzyme assay method
(§4) 0.5 uL compounds in DMSO are added to wells of a 384 well microtitre plate (Corning 3575). At room temperature: 10 ul PI3K reaction buffer (50 mM Hepes, 5 mM DTT, 150 mM NaCl, 10 mM beta-glycerophosphate, 10 mM MgCl2, 0.25 mM sodium cholate and 0.001% CHAPS, pH 7.00) containing ATP (25 uM, Promega) is added followed immediately by 10 ul PI3K reaction buffer containing di-C8 P1(4,5)P2 (3.5 uM, CellSignals) and PI3Kalpha (0.4875 nM, Millennium Protein Sciences Group) and the mixture is incubated with shaking at room temperature for 30 minutes. Then 5 ul PI3K stop mix (50 mM Hepes, 5 mM DTT, 150 mM NaCl, 0.01% Tween-20, 15 mM EDTA and 25 nM biotin-PI(3,4,5)P3 (Echelon) is added to quench the reaction followed immediately by addition of 5 ul HTRF detection mix (50 mM Hepes, 5 mM DTT, 150 mM NaCl, 0.01% Tween-20, 40 mM KF, 1.0 nM GST:GRP-1 PH domain (Millennium Protein Sciences Group), 15 nM Streptavidin-XL (CisBio) and 0.375 nM anti-GST Eu++ antibody (CisBio) at pH 7.00). The plates are then incubated for 1 hour at room temperature with shaking and then read on a BMG PheraStar Plus reader.
(§5) For the assay methods described above, test compound percent inhibition, at various concentrations, is calculated relative to control (DMSO and EDTA) treated samples. Compound concentration versus percent inhibition curves are fitted to generate IC50 values. One skilled in the art will appreciate that the values generated either as percentage inhibition at a single concentration or IC50 values are subject to experimental variation.

Human PI3K beta = target: T2, Human PI3K beta (Homo sapiens, UniProt P42338); test: Human PI3K beta enzyme assay (HTRF); assay type: biochemical; settings: read-out: PI3 Kbeta IC50
T2 construct: His (N); host or cells: SF9 insect cells (baculovirus)
From the text: as §1, §2, §3, §4
2) Human PI3K beta, delta and gamma isoforms are tested using the procedure described for PI3K alpha above but with the following changes: PI3K beta (5.25 nM), PI3K delta (0.75 nM) and PI3K gamma (5 nM). All isoforms supplied by Millennium Protein Science Group.
as §5

T1 sequence (P42336 whole entry): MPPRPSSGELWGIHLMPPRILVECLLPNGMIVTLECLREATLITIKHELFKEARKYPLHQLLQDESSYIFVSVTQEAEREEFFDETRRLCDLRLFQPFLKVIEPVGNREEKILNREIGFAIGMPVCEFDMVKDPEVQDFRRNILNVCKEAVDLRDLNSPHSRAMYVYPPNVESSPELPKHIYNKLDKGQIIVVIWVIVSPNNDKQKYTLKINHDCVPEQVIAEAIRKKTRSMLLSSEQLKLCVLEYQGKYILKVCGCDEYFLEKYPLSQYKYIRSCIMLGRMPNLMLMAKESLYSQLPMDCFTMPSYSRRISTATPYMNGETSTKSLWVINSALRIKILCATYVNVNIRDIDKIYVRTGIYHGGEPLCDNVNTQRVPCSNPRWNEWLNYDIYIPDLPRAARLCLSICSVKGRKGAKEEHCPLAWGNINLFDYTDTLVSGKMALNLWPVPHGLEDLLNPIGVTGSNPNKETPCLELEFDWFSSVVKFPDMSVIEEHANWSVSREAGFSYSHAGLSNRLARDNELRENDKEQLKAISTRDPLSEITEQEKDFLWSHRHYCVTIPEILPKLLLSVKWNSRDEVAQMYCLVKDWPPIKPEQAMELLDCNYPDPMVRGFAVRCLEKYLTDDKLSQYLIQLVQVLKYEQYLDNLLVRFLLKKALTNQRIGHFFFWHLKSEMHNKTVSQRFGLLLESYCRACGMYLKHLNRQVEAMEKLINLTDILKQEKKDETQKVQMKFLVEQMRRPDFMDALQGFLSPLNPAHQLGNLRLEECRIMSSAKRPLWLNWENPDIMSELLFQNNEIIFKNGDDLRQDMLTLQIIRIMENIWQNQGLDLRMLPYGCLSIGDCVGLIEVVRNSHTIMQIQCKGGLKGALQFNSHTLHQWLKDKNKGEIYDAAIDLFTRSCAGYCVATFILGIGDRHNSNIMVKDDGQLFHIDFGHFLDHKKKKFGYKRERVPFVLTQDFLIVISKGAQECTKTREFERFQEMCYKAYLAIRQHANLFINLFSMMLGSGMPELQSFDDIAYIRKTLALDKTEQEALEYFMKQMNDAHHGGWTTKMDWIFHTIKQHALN
T1 sequence (P27986 whole entry partner): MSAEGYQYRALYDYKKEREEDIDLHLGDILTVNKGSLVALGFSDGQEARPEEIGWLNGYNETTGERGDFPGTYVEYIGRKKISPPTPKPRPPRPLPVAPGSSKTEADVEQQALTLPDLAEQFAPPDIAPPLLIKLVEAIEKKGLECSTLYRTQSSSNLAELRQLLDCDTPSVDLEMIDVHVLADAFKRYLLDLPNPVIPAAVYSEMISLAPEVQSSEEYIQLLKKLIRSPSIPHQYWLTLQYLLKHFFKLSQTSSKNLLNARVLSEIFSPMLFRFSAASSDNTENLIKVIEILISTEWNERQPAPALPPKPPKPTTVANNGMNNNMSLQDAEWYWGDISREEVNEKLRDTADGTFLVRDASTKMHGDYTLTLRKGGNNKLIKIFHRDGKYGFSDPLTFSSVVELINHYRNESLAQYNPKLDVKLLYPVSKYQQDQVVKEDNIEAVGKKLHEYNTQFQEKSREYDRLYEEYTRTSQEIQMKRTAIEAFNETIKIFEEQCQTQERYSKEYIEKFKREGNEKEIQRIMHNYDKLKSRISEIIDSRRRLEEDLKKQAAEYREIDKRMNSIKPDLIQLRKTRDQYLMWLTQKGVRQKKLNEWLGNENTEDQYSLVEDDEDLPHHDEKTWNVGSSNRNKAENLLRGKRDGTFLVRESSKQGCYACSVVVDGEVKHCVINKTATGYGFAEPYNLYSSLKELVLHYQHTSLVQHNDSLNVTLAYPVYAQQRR
T2 sequence (P42338 whole entry): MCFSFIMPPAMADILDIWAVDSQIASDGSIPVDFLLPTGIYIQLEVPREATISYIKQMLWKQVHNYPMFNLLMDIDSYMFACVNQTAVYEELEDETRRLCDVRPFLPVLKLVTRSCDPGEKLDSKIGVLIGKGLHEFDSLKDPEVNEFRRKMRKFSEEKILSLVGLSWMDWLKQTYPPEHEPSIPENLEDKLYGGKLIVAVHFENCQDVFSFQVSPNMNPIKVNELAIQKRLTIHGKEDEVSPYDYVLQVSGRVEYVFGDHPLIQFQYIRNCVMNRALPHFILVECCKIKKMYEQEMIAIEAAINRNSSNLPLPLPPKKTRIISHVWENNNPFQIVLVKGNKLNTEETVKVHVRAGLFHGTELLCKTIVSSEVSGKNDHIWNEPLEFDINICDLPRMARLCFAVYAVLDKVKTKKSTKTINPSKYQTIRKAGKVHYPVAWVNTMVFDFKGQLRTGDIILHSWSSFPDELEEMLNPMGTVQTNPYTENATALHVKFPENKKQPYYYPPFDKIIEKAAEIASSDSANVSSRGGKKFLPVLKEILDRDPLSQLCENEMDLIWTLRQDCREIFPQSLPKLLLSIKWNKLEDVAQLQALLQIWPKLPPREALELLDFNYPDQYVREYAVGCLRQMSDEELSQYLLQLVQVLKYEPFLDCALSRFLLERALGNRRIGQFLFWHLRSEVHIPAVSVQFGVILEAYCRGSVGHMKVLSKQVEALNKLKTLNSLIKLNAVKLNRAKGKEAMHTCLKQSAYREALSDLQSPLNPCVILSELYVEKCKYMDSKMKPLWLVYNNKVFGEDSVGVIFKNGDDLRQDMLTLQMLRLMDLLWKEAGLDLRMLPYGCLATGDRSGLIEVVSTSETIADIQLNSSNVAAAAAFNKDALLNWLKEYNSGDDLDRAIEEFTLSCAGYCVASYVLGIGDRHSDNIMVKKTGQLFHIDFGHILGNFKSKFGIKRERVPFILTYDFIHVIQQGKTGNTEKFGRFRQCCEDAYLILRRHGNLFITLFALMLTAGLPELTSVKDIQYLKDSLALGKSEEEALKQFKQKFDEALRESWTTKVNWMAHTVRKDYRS
T2 sequence (P27986 whole entry partner): as the sequence (P27986 whole entry partner) above

Compound: O[C@H](c1ccc(Cl)cc1)c1nc(-c2ccncc2)sc1-c1nnc[nH]1 (single isomer, unassigned) [Compound 19, (4-chlorophenyl)[2-pyridin-4-yl-5-(1H-1,2,4-triazol-3-yl)-1,3-thiazol-4-yl]methanol]
IC50 (Human PI3K alpha): > 1000 nM
IC50 (Human PI3K beta): < 100 nM

Compound: Cc1nn2ccc(CN)cc2c1-c1nc(Cc2ccc(Cl)cc2)c(-c2nnc[nH]2)s1 [Compound 1, 1-{3-[4-(4-chlorobenzyl)-5-(4H-1,2,4-triazol-3-yl)-1,3-thiazol-2-yl]-2-methylpyrazolo[1,5-a]pyridin-5-yl}methanamine]
IC50 (Human PI3K alpha): 100 to 1000 nM
IC50 (Human PI3K beta): 100 to 1000 nM

Compound: CC(=O)Nc1cc(-c2nc(Cc3ccccc3)c(-c3ncc[nH]3)s2)ccn1 [Compound 2, N-{4-[4-benzyl-5-(1H-imidazol-2-yl)-1,3-thiazol-2-yl]pyridin-2-yl}acetamide]
IC50 (Human PI3K alpha): > 1000 nM
IC50 (Human PI3K beta): > 1000 nM

Compound: N#Cc1cc(-c2cc([C@H](O)c3ccc(Cl)cc3)c(-c3nnc[nH]3)s2)ccn1 [Compound 3]
IC50 (Human PI3K alpha): > 1000 nM
IC50 (Human PI3K beta): < 100 nM

Compound: Cc1nn2ccccc2c1-c1nc(Cc2ccc(Cl)cc2)c(-c2nnc[nH]2)s1 [Compound 4, 3-[4-(4-chlorobenzyl)-5-(4H-1,2,4-triazol-3-yl)-1,3-thiazol-2-yl]-2-methylpyrazolo[1,5-a]pyridine]
IC50 (Human PI3K alpha): 100 to 1000 nM
IC50 (Human PI3K beta): 100 to 1000 nM

Compound: Clc1ccc(Cc2cc(-c3ccncc3)sc2-c2nnc[nH]2)cc1 [Compound 5, 4-[4-(4-chlorobenzyl)-5-(4H-1,2,4-triazol-3-yl)-2-thienyl]pyridine]
IC50 (Human PI3K alpha): > 1000 nM
IC50 (Human PI3K beta): < 100 nM

Compound: COC(c1ccc(Cl)cc1)c1cc(-c2ccncc2)sc1-c1nnc[nH]1 (centres unmarked) [Compound 6, 4-[4-[(4-chlorophenyl)(methoxy)methyl]-5-(4H-1,2,4-triazol-3-yl)-2-thienyl]pyridine]
IC50 (Human PI3K alpha): > 1000 nM
IC50 (Human PI3K beta): 100 to 1000 nM

Compound: Clc1ccc(Cc2nc(-c3ccncc3)sc2-c2nnc[nH]2)cc1Cl [Compound 7]
IC50 (Human PI3K alpha): > 1000 nM
IC50 (Human PI3K beta): < 100 nM

Compound: OCc1cc(-c2cc(C(O)c3ccc(Cl)cc3)c(-c3nnc[nH]3)s2)ccn1 (centres unmarked) [Compound 8]
IC50 (Human PI3K alpha): > 1000 nM
IC50 (Human PI3K beta): 100 to 1000 nM

Compound: CN(C)C(c1ccc(Cl)cc1)c1cc(-c2ccncc2)sc1-c1nnc[nH]1 (centres unmarked) [Compound 9, 1-(4-chlorophenyl)-N,N-dimethyl-1-[5-pyridin-4-yl-2-(4H-1,2,4-triazol-3-yl)-3-thienyl]methanamine]
IC50 (Human PI3K alpha): > 1000 nM
IC50 (Human PI3K beta): < 100 nM

Compound: OC(c1ccc(Cl)cc1)c1cc(-c2ccnc3[nH]ccc23)sc1-c1nnc[nH]1 (centres unmarked) [Compound 10]
IC50 (Human PI3K alpha): 100 to 1000 nM
IC50 (Human PI3K beta): 100 to 1000 nM

Compound: Cc1cc(-c2cc(C(O)c3ccc(Cl)cc3)c(-c3nnc[nH]3)s2)ccn1 (centres unmarked) [Compound 11]
IC50 (Human PI3K alpha): > 1000 nM
IC50 (Human PI3K beta): < 100 nM

Compound: N#Cc1c(-c2ccnc(N)c2)sc(-c2nnc[nH]2)c1Cc1ccc(Cl)cc1 [Compound 12, 2-(2-aminopyridin-4-yl)-4-(4-chlorobenzyl)-5-(4H-1,2,4-triazol-3-yl)thiophene-3-carbonitrile]
IC50 (Human PI3K alpha): > 1000 nM
IC50 (Human PI3K beta): 100 to 1000 nM

Compound: OC(c1ccc(Cl)cc1)c1cc(-c2ccnc3ccsc23)sc1-c1nnc[nH]1 (centres unmarked) [Compound 13]
IC50 (Human PI3K alpha): < 100 nM
IC50 (Human PI3K beta): < 100 nM

Compound: OC(c1ccc(Cl)cc1)c1cc(-c2ccnc(Cl)c2)sc1-c1nnc[nH]1 (centres unmarked) [Compound 14]
IC50 (Human PI3K alpha): 100 to 1000 nM
IC50 (Human PI3K beta): < 100 nM

Compound: Clc1ccc(Cc2nc(-c3ccncc3)sc2-c2ncc[nH]2)cc1 [Compound 15, 4-(4-chlorobenzyl)-5-(1H-imidazol-2-yl)-2-(pyridin-4-yl)thiazole]
IC50 (Human PI3K alpha): > 1000 nM
IC50 (Human PI3K beta): 100 to 1000 nM

Compound: OC(c1ccc(Cl)cc1)c1cc(-c2ccncc2F)sc1-c1nnc[nH]1 (centres unmarked) [Compound 16]
IC50 (Human PI3K alpha): > 1000 nM
IC50 (Human PI3K beta): < 100 nM

Compound: COc1cc(-c2cc(C(O)c3ccc(Cl)cc3)c(-c3nnc[nH]3)s2)ccn1 (centres unmarked) [Compound 17]
IC50 (Human PI3K alpha): > 1000 nM
IC50 (Human PI3K beta): 100 to 1000 nM

Compound: Cc1cc(-c2nc(Cc3ccc(Cl)cc3)c(-c3nc[nH]n3)s2)ccn1 [Compound 18, 4-(4-Chlorobenzyl)-2-(2-methylpyridin-4-yl)-5-(4H-1,2,4-triazol-3-yl)thiazole]
IC50 (Human PI3K alpha): > 1000 nM
IC50 (Human PI3K beta): > 1000 nM

Compound: COc1ccc(CNCc2ccn3nc(C)c(-c4nc(Cc5ccc(Cl)cc5)c(-c5nnc[nH]5)s4)c3c2)c(OC)c1 [Compound 20]
IC50 (Human PI3K alpha): 100 to 1000 nM
IC50 (Human PI3K beta): < 100 nM

Further lines, results first:

IC50 (Human PI3K alpha): 100 to 1000 nM
IC50 (Human PI3K beta): 100 to 1000 nM
Compound: O[C@@H](c1ccc(Cl)cc1)c1cc(-c2ccnc(Cl)c2)sc1-c1nnc[nH]1 (single isomer, unassigned) [Compound 40]

IC50 (Human PI3K alpha): > 1000 nM
IC50 (Human PI3K beta): 100 to 1000 nM
Compound: Cc1cc(-c2cc([C@@H](O)c3ccc(Cl)cc3)c(-c3nnc[nH]3)s2)ccn1 (single isomer, unassigned) [Compound 69]

IC50 (Human PI3K alpha): > 1000 nM
IC50 (Human PI3K beta): 100 to 1000 nM
Compound: O[C@@H](c1ccc(Cl)cc1)c1nc(-c2ccncc2)sc1-c1nnc[nH]1 (single isomer, unassigned) [Compound 70, (4-chlorophenyl)[2-pyridin-4-yl-5-(1H-1,2,4-triazol-3-yl)-1,3-thiazol-4-yl]methanol]

IC50 (Human PI3K alpha): > 1000 nM
IC50 (Human PI3K beta): < 100 nM
Compound: OC(c1ccc(Cl)cc1)c1cc(-c2ccnc(F)c2)sc1-c1nnc[nH]1 (centres unmarked) [Compound 21, (4-chlorophenyl)[5-(2-fluoropyridin-4-yl)-2-(4H-1,2,4-triazol-3-yl)-3-thienyl]methanol]

IC50 (Human PI3K alpha): > 1000 nM
IC50 (Human PI3K beta): > 1000 nM
Compound: Clc1ccc(Cc2nc(-c3ccncc3)sc2-c2ccc[nH]2)cc1 [Compound 22, 4-(4-chlorobenzyl)-2-(pyridin-4-yl)-5-(1H-pyrrol-2-yl)thiazole]

IC50 (Human PI3K alpha): > 1000 nM
IC50 (Human PI3K beta): 100 to 1000 nM
Compound: Nc1nccc(-c2cc(C(O)c3ccc(Cl)cc3)c(-c3nnc[nH]3)s2)n1 (centres unmarked) [Compound 23]

IC50 (Human PI3K alpha): 100 to 1000 nM
IC50 (Human PI3K beta): > 1000 nM
Compound: CC(=O)Nc1cc(-c2nc(Cc3ccc(C)cc3)c(-c3ncc[nH]3)s2)ccn1 [Compound 24]

IC50 (Human PI3K alpha): > 1000 nM
IC50 (Human PI3K beta): 100 to 1000 nM
Compound: OC(c1ccc(Cl)cc1)c1cc(-c2ccncc2Cl)sc1-c1nc[nH]n1 (centres unmarked) [Compound 25]

IC50 (Human PI3K alpha): > 1000 nM
IC50 (Human PI3K beta): 100 to 1000 nM
Compound: O[C@@H](c1ccc(Cl)cc1)c1cc(-c2ccnc(F)c2)sc1-c1nnc[nH]1 [Compound 26]

IC50 (Human PI3K alpha): > 1000 nM
IC50 (Human PI3K beta): 100 to 1000 nM
Compound: Nc1cc(-c2nc(Cc3ccc(Cl)cc3)c(-c3ncn[nH]3)s2)ccn1 [Compound 27]

IC50 (Human PI3K alpha): 100 to 1000 nM
IC50 (Human PI3K beta): 100 to 1000 nM
Compound: OC(c1ccc(Cl)cc1)c1cc(-c2ccnc(-n3ccnc3)c2)sc1-c1nnc[nH]1 (centres unmarked) [Compound 28]

IC50 (Human PI3K alpha): < 100 nM
IC50 (Human PI3K beta): > 1000 nM
Compound: CC(=O)Nc1cc(-c2nc(NC(=O)c3ccccc3)c(-c3ncc[nH]3)s2)ccn1 [Compound 29, N-(2-(2-acetamidopyridin-4-yl)-5-(1H-imidazol-2-yl)thiazol-4-yl)benzamide]

IC50 (Human PI3K alpha): 100 to 1000 nM
IC50 (Human PI3K beta): < 100 nM
Compound: O[C@H](c1ccc(Cl)cc1)c1cc(-c2ccnc(Cl)c2)sc1-c1nnc[nH]1 [Compound 30]

IC50 (Human PI3K alpha): 100 to 1000 nM
IC50 (Human PI3K beta): < 100 nM
Compound: Cc1nn2ccc(CN(CCN)Cc3ccncc3)cc2c1-c1nc(Cc2ccc(Cl)cc2)c(-c2nnc[nH]2)s1 [Compound 31]

IC50 (Human PI3K alpha): 100 to 1000 nM
IC50 (Human PI3K beta): 100 to 1000 nM
Compound: Cc1nn2ccc(CNCc3ccccc3)cc2c1-c1nc(Cc2ccc(Cl)cc2)c(-c2nnc[nH]2)s1 [Compound 32]

IC50 (Human PI3K alpha): > 1000 nM
IC50 (Human PI3K beta): 100 to 1000 nM
Compound: CC(C)NC(c1ccc(Cl)cc1)c1cc(-c2ccncc2)sc1-c1nnc[nH]1 (centres unmarked) [Compound 33]

IC50 (Human PI3K alpha): > 1000 nM
IC50 (Human PI3K beta): 100 to 1000 nM
Compound: Cc1noc(C)c1-c1cc(C(O)c2ccc(Cl)cc2)c(-c2nnc[nH]2)s1 (centres unmarked) [Compound 34]
